Here are results for 30 compounds from patent US5220050A, “Peptide mimetic compounds useful as platelet aggregation inhibitors” (G. D. Searle & Co., priority 1991, dated 1993).

This experiment relates to Platelet Aggregation in Dog PRP. In words: In-Vitro Platelet Aggregation in PRP (ADP induced). It is filed as cell-based. The settings on record: for IC50: Canis lupus familiaris, Platelet, in-vitro. The procedure: Healthy male or female dogs were fasted for 8 hours prior to drawing blood; then 30 ml whole blood was collected using a butterfly needle and 30 cc plastic syringe with 3 ml of 0.129 M buffered sodium citrate (3.8%). The syringe was rotated carefully as blood was drawn to mix the citrate. Platelet-rich plasma (PRP) was prepared by centrifugation at 975×g for 3.17 minutes at room temperature, allowing the centrifuge to coast to a stop without braking. The PRP was removed from the blood with a plastic pipette and placed in a plastic capped, 50 ml Corning conical sterile centrifuge tube which was held at room temperature. Platelet poor plasma (PPP) was prepared by centrifuging the remaining blood at 2000×g for 15 minutes at room temperature allowing the centrifuge to coast to a stop without braking. The PRP was adjusted with PPP to a count of 2-3×10^8 platelets per ml. 400 μl of the PRP preparation and 50 μl of the compound to be tested or saline were preincubated for 1 minute at 37° C. in a BioData aggregometer (BioData, Horsham, Pa.). 50 μl of adenosine 5'diphosphate (ADP) (50 μm final concentration) was added to the cuvettes and the aggregation was monitored for 1 minute. All compounds are tested in duplicate. Results are calculated as follows:
Percent of control=[(maximal OD minus initial OD of compound) divided by (maximal OD minus initial OD of control saline)]×100. The % inhibition=100-(percent of control).

The term IC50 denotes the concentration that gives 50% inhibition. Lower therefore signals inhibition by little substance. `N=C(N)c1ccc(CCCCC(=O)NC(CC(=O)O)c2ccc(C(=O)O)cc2)cc1` (stereo not drawn) [β-[[5-[4-(aminoiminomethyl)phenyl]-1-oxopentyl]amino]-4-carboxybenzenepropanoic acid] had an IC50 of 1.3 µM. This counts as single-digit micromolar.

`N=C(N)c1ccc(CCCCC(=O)NC(CC(=O)O)c2ccc3c(c2)OCO3)cc1` (stereo not drawn) [β-[[5-[4-(aminoiminomethyl)phenyl]-1-oxopentyl]amino]-1,3-benzodioxole-5-propanoic acid] came in with an IC50 of 0.28 µM.

Compound `N=C(N)c1ccc(CCCCC(=O)NC(CC(=O)O)c2ccc(C(F)(F)F)cc2)cc1` (stereo not drawn) [β-[[5-[4-(aminoiminomethyl)phenyl]-1-oxopentyl]amino]-4-(trifluoromethyl)benzenepropanoic acid] returned an IC50 of 4.3 µM. Compared with the last compound, the IC50 is about 15-fold higher.

In the case of `C[n+]1cccc(C(CC(=O)O)NC(=O)CCCCc2ccc(C(=N)N)cc2)c1` (stereo not drawn) [3-[1-[[5-[4-(aminoiminomethyl)phenyl]-1-oxopentyl]amino]-2-carboxyethyl]-1-methylpyridinium chloride], the IC50 was found to be 5.8 µM.

As for `N=C(N)c1ccc(CCCCC(=O)NC(CC(=O)O)c2cccc(C(F)(F)F)c2)cc1` (stereo not drawn) [β-[[5-[4-(aminoiminomethyl)phenyl]-1-oxopentyl]amino]-3-(trifluoromethyl)benzenepropanoic acid], the IC50 was determined as 7 µM.

`COc1cccc(C(CC(=O)O)NC(=O)CCCCc2ccc(C(=N)N)cc2)c1` (stereo not drawn) [β-[[5-[4-(aminoiminomethyl)phenyl]-1-oxopentyl]amino]-3-methoxybenzenepropanoic acid] displayed an IC50 of 1.3 µM.

With `COc1ccc(C(CC(=O)O)NC(=O)CCCCc2ccc(C(=N)N)cc2)c(OC)c1` (stereo not drawn) [β-[[5-[4-(aminoiminomethyl)phenyl]-1-oxopentyl]amino]-2,4-dimethoxybenzenepropanoic acid], the IC50 was 2.5 µM.

`N=C(N)c1ccc(CCCCC(=O)NC(CC(=O)O)c2ccc(C(=N)N)cc2)cc1` (stereo not drawn) [4-(aminoiminomethyl)-β-[[5-[4-(aminoiminomethyl)phenyl]-1-oxopentyl]amino]benzenepropanoic acid] returned an IC50 of 1.8 µM.

In the case of `N=C(N)c1ccc(CCCCC(=O)NC(CCCCc2ccccc2)CC(=O)O)cc1` (stereo not drawn) [β-[[5-[4-(aminoiminomethyl)phenyl]-1-oxopentyl]amino]benzeneheptanoic acid], the midpoint of inhibition, the IC50, lay at 7.1 µM.

`C[C@H](CC(=O)O)NC(=O)CCCCc1ccc(C(=N)N)cc1` [3R-[[5-[4-(aminoiminomethyl)phenyl]-1-oxopentyl]amino]butanoic acid] came in with an IC50 of 1.3 µM.

Consider `N=C(N)c1ccc(CCCCC(=O)NC(CC(=O)O)c2ccc(Oc3ccccc3)cc2)cc1` (stereo not drawn) [β-[[5-[4-(aminoiminomethyl)phenyl]-1-oxopentyl]amino]-4-phenoxybenzenepropanoic acid], for which it took 2 µM to reach half-maximal inhibition (IC50).

For the compound `COc1cc(OC)cc(C(CC(=O)O)NC(=O)CCCCc2ccc(C(=N)N)cc2)c1` (stereo not drawn) [β-[[5-[4-(aminoiminomethyl)phenyl]-1-oxopentyl]amino]-3,5-dimethoxybenzenepropanoic acid], the IC50 came to 0.33 µM.

As to `N=C(N)c1ccc(CCCCC(=O)NC(CC(=O)O)c2cccc(Oc3ccccc3)c2)cc1` (stereo not drawn) [β-[[5-[4-(aminoiminomethyl)phenyl]-1-oxopentyl]amino]-3-phenoxybenzenepropanoic acid], the IC50 stood at 5.1 µM.

In turn, `N=C(N)c1ccc(CCCCC(=O)NC(CC(=O)O)c2ccccn2)cc1` (stereo not drawn) [β-[[5-[4-(aminoiminomethyl)phenyl]-1-oxopentyl]amino]-2-pyridinepropanoic acid] yielded an IC50 of 2.3 µM.

In the case of `COc1ccc(OC)c(C(CC(=O)O)NC(=O)CCCCc2ccc(C(=N)N)cc2)c1` (stereo not drawn) [β-[[5-[4-(aminoiminomethyl)phenyl]-1-oxopentyl]amino]-2,5-dimethoxybenzenepropanoic acid], the IC50 is 9 µM. Against the preceding compound, the IC50 is about 3.9-fold higher.

The compound `N#Cc1cccc(C(CC(=O)O)NC(=O)CCCCc2ccc(C(=N)N)cc2)c1` (stereo not drawn) [β-[[5-[4-(aminoiminomethyl)phenyl]-1-oxopentyl]amino]-3-cyanobenzenepropanoic acid] yielded an IC50 of 1.4 µM.

As a reminder, the % Inhibition is the relative decrease from the control value, in per cent. Low values mean a weak effect, high ones a strong effect. In the case of “βR-[[5-[4-(aminoiminomethyl)phenyl]-1-oxopentyl]amino]-1-naphthalenebutanoic acid”, the “% Inhibition” value (test concentration 1 × 10^-5) was determined as 5%.

In turn, `N#Cc1ccc(C(CC(=O)O)NC(=O)CCCCc2ccc(C(=N)N)cc2)cc1` (stereo not drawn) [β-[[5-[4-(aminoiminomethyl)phenyl]-1-oxopentyl]amino]-4-cyanobenzenepropanoic acid] had an IC50 of 1.3 µM.

`N=C(N)c1ccc(CCCCC(=O)NCCC(=O)OCc2ccccc2)cc1` [N-[5-[4-(Aminoiminomethyl)phenyl]-1-oxopentyl]-β-alanine, phenylmethyl ester]: it took 5 µM to reach half-maximal inhibition (IC50).

`N=C(N)c1ccc(CCCCC(=O)NC(CC(=O)O)c2cccs2)cc1` (racemic) [(±)-β-[[5-[4-(aminoiminomethyl)phenyl]-1-oxopentyl]amino]-2-thiophenepropanoic acid] returned an IC50 of 1.7 µM.

`N=C(N)c1ccc(CCCCC(=O)NC(CC(=O)O)c2ccc(O)cc2)cc1` (stereo not drawn) [β-[[5-[4-(aminoiminomethyl)phenyl]-1-oxopentyl]amino]-4-hydroxybenzenepropanoic acid] had an IC50 of 0.8 µM.

`CCOc1ccc(C(CC(=O)O)NC(=O)CCCCc2ccc(C(=N)N)cc2)cc1` (stereo not drawn) [β-[[5-[4-(aminoiminomethyl)phenyl]-1-oxopentyl]amino]-4-ethoxybenzenepropanoic acid] displayed an IC50 of 0.4 µM.

In turn, `COc1ccc(C(CC(=O)O)NC(=O)CCCCc2ccc(C(=N)N)cc2)cc1OC` (stereo not drawn) [β-[[5-[4-(aminoiminomethyl)phenyl]-1-oxopentyl]amino]-3,4-dimethoxybenzenepropanoic acid] registered an IC50 of 0.53 µM.

The compound `N=C(N)c1ccc(CCCCC(=O)NC(CC(=O)O)c2ccc(OCc3ccccc3)cc2)cc1` (stereo not drawn) [β-[[5-[4-(aminoiminomethyl)phenyl]-1-oxopentyl]amino]-4-(phenylmethoxy)benzenepropanoic acid] gave an IC50 of 1.2 µM.

Turning to `N=C(N)c1ccc(CCCCC(=O)NC(CC(=O)O)c2ccccc2O)cc1` (racemic) [(±)-β-[[5-[4-(aminoiminomethyl)phenyl]-1-oxopentyl]amino-2-hydroxybenzenepropanoic acid], the IC50 came to 2 µM. This IC50 lies about 1.7-fold higher than the previous one.

`N=C(N)c1ccc(CCCCC(=O)NC(CC(=O)O)c2cccc(F)c2)cc1` (stereo not drawn) [β-[[5-[4-(aminoiminomethyl)phenyl]-1-oxopentyl]amino]-3-fluorobenzenepropanoic acid] had an IC50 of 1.3 µM.

`N=C(N)c1ccc(CCCCC(=O)NC(CC(=O)O)c2ccc(Br)cc2)cc1` (stereo not drawn) [β-[[5-[4-(aminoiminomethyl)phenyl]-1-oxopentyl]amino]-4-bromobenzenepropanoic acid]: the IC50 worked out at 3.1 µM.

The compound `C=CC(CC(=O)O)NC(=O)CCCCc1ccc(C(=N)N)cc1` (stereo not drawn) [3-[[5-[4-(aminoiminomethyl)phenyl]-1-oxopentyl]amino]-4-pentenoic acid] had an IC50 of 9.2 µM.

As for `N=C(N)c1ccc(CCCCC(=O)NC(CC(=O)O)c2cccnc2)cc1` (stereo not drawn) [β-[[5-[4-(aminoiminomethyl)phenyl]-1-oxopentyl]amino]-3-pyridinepropanoic acid], the IC50 came out at 0.12 µM.

The compound `N=C(N)c1ccc(CCCCC(=O)NC(CC(=O)O)c2ccc(Cl)cc2)cc1` (stereo not drawn) [β-[[5-[4-(aminoiminomethyl)phenyl]-1-oxopentyl]amino]-4-chlorobenzenepropanoic acid] had an IC50 of 2.8 µM.
